Experimental findings from publication PMC8399196, “Synthesis, Characterization, and Anticancer Activity of Benzothiazole Aniline Derivatives and Their Platinum (II) Complexes as New Chemotherapy Agents” (Pharmaceuticals, 2021) are described below.

A word on the IC50: it is the concentration that inhibits the measured activity by half.

In data set [1] the test system is MCF-10A cells. The data set can be described thus: CCK-8 cell viability assay, MCF-10A normal cells. The class given is cell-based. The note with it: MCF-10A normal human breast epithelial cells, CCK-8, 24 h, mean ± SEM, n = 3. As for the experimental part:
(§1) Human colorectal adenocarcinoma cells (HT-29, ATCC® HTB-38), adenocarcinomic human alveolar basal epithelial cells (A549, ATCC® CCL-185), and prostate cancer (PC-3, ATCC® CRL-1435) were cultured in the growth medium, containing Roswell Park Memorial Institute Medium (RPMI1640) WelGENE, Daegu, Korea supplemented with 10% (v/v) fetal bovine serum (FBS, Gibco, Grand Island, NY, USA) and 1% antibiotics-antimycotics (Gibco). Human breast adenocarcinoma cells (MCF-7, ATCC® HTB-22™), hepatocellular carcinoma (HepG2, ATCC® HB-8065™), Rattus brain glioma (C6, ATCC ® CRL-2303™), and human renal carcinoma (Caki-2, ATCC® HTB-47™) cells were cultured in Dulbecco’s modified Eagle’s medium (DMEM, WelGENE, Daegu, Korea) supplemented with 10% (v/v) FBS (Gibco) and 1% antibiotics-antimycotics (Gibco). Mouse brain neural (NE-4C, ATCC® CRL-2925™) and human cervix adenocarcinoma cells (HeLa, ATCC® CCL-2™) were cultured in Eagle’s minimum essential medium (EMEM, ATCC® 30-2003™) supplemented with 10% FBS (Gibco) and 1% antibiotics-antimycotics (Gibco). Mouse liver normal cells (AML12, ATCC® CRL-2254™) were cultured in DMEM/F-12 (WelGENE) supplemented with 10% FBS (Gibco), 1 × ITS (10 μg/mL insulin, 5.5 μg/mL transferrin, 6.7 ng/mL selenium, Gibco), […] 1% antibiotics-antimycotics (Gibco). Human breast epithelial cells (MCF 10A, ATCC® CRL-10317™) were cultured in DMEM/F-12 (WelGENE) supplemented with 5% horse serum (Gibco), 20 ng/mL epidermal growth factor (EGF, Peprotech Inc., Rocky Hill, NJ, USA), […] (Sigma-Aldrich, St. Louis, MO, USA), 100 ng/mL colera toxin (Sigma-Aldrich), 10 μg/mL insulin (Sigma-Aldrich) and 1% antibiotics- (Gibco). Human colon normal epithelial cells (FHC, ATCC® CRL-18317™) were cultured in DMEM/F-12 (WelGENE) supplemented with 10% FBS (Gibco), 10 ng/mL cholera toxin (Sigma-Aldrich), 20 ng/mL EGF (Peprotech Inc.), 100 μg/mL hydrocortisone (Sigma-Aldrich), 1 × ITS (10 μg/mL insulin, 5.5 μg/mL transferrin, 6.7 ng/mL selenium, Gibco) and 1% antibiotics-antimycotics (with 100 units penicillin, 100 μg streptomycin and 250 ng amphotericin B per mL, Gibco). Cells were incubated in a humidified 5% CO2 atmosphere at 37 °C.
(§2) To evaluate cytotoxicity, cells were seeded in a 96-well plate (FHC, 0.5 × 10^4 cells/well; Caki-2 and MCF 10A, 1 × 10^4 cells/well; AML12, 1.2 × 10^4 cells/well; HeLa, HEK-293, A549, and PC-3, 1.5 × 10^4 cells/well; HT-29, MCF-7, C6, HepG2, and NE-4C, 2 × 10^4 cells/well). […] In addition, cell counting kit-8 (CCK-8, Dojindo Laboratories, Kumamoto, Japan) solution was added to each well, and the plate was incubated for 2 h. The absorbance was then measured at 450 nm using a microplate reader (SpectraMax i3, Molecular Devices, San Jose, CA, USA). The IC50 and logIC50 values were calculated in GraphPad Prism (GraphPad Prism Software Inc. Version 5.02, San Diego, CA, USA). All experiments were performed, independently, three times. The graph of logIC50 values represents the average value.

The subject of data set [2] is Caki-2 cells. The data set can be described thus: CCK-8 cell viability assay, Caki-2. The note with it: Caki-2 human renal cancer cells, CCK-8, 24 h, mean ± SEM, n = 3. The class given is cell-based. As for the experimental part: as §1, §2
Background: Tetrazolium dyes change colour on reduction, which living cells bring about.

For data set [3], the system named is PC-3 cells. The experiment in a line: CCK-8 cell viability assay, PC-3. The class given is cell-based. The note with it: PC-3 human prostate cancer cells, CCK-8, 24 h, mean ± SEM, n = 3. As for the experimental part: as §1, §2
A short description of data set [4]: Stability in buffered aqueous solution by UV-Vis spectroscopy. The class given is physicochemical. As for the experimental part:
An indispensable feature of any promising anticancer agent is its thermodynamic stability in aqueous media. All prospective agents should be able to reach their target under the conditions encountered in living organisms. Therefore, the stability of the compounds was measured at 1 mM in phosphate-buffered saline (PBS) solution using UV–Vis spectroscopy. […] The stability of the metal complexes is often dependent on the pH value and the pH 4.5–5.0 is crucial since endosomal uptake of the complexes by lysosomes can occur.

The subject of data set [5] is AML12 cells. The data set can be described thus: CCK-8 cell viability assay, AML12 normal cells. The class given is cell-based. The note with it: AML12 normal mouse liver hepatocyte cells, CCK-8, 24 h, mean ± SEM, n = 3. As for the experimental part:
as §1, §2

Data set [6] deals with HepG2 cells. The data set can be described thus: CCK-8 cell viability assay, HepG2. It counts as cell-based. The note with it: HepG2 human hepatic carcinoma cells, CCK-8, 24 h, mean ± SEM, n = 3. The procedure: as §1, §2
Data set [7] relates to A549 cells. The data set can be described thus: CCK-8 cell viability assay, A549. It counts as cell-based. The note with it: A549 human lung cancer cells, CCK-8, 24 h, mean ± SEM, n = 3. The procedure: as §1, §2
Data set [8] concerns FHC cells. The data set can be described thus: CCK-8 cell viability assay, FHC normal cells. The class given is cell-based. The note with it: FHC normal human colon epithelial cells, CCK-8, 24 h, mean ± SEM, n = 3. As for the experimental part: as §1, §2
In data set [9] the test system is HEK-293 cells. The data set can be described thus: CCK-8 cell viability assay, HEK-293 normal cells. It counts as cell-based. The note with it: HEK-293 human embryonic kidney cells, CCK-8, 24 h, mean ± SEM, n = 3. As for the experimental part:
as §2

Data set [10] relates to MCF-7 cells. The experiment in a line: CCK-8 cell viability assay, MCF-7. It counts as cell-based. The note with it: MCF-7 human breast cancer cells, CCK-8, 24 h, mean ± SEM, n = 3. As for the experimental part:
as §1, §2

Data set [11] has as its system C6 cells. The data set can be described thus: CCK-8 cell viability assay, C6. It counts as cell-based, Rattus. The note with it: C6 brain glioma cells, CCK-8, 24 h, mean ± SEM, n = 3. The procedure:
as §1, §2

Data set [12] concerns NE-4C cells. The experiment in a line: CCK-8 cell viability assay, NE-4C normal cells. The class given is cell-based. The note with it: NE-4C mouse brain neural stem cells, CCK-8, 24 h, mean ± SEM, n = 3. The procedure: as §1, §2
Data set [13] relates to HeLa cells. The data set can be described thus: CCK-8 cell viability assay, HeLa. The class given is cell-based. The note with it: HeLa human cervical cancer cells, CCK-8, 24 h, mean ± SEM, n = 3. The procedure:
as §1, §2

Data set [14] is described as follows: Solubility in water / aqueous media. The class given is physicochemical.
Data set [15] deals with HT-29 cells. The experiment in a line: CCK-8 cell viability assay, HT-29. It counts as cell-based. The note with it: HT-29 human colon cancer cells, CCK-8, 24 h, mean ± SEM, n = 3. As for the experimental part:
as §1, §2

“Also recorded” adds a separate entry of the source.

Take `O=C(Nc1ccc(-c2nc3ccccc3s2)cc1)C1C[NH2+][Pt-2]([Cl])([Cl])[NH2+]1` (stereo not shown) [Compound L1Pt]: the IC50 in [1] turned out to be 46.9 ± 5.1 µM; in data set [2], 106 ± 8.5 µM; in data set [3] it was 55.7 ± 7.5 µM; in [5] it was 139 ± 0.8 µM; in data set [6], 7.5 ± 0.1 µM; in data set [7] it was 167 ± 11.2 µM. Also, the IC50 in data set [8] stood at 64.3 ± 2.4 µM; in data set [9], 54.9 ± 2.8 µM; in [10] it was 59 ± 11 µM; in data set [11], 93.3 ± 22.7 µM; in data set [12], 25.7 ± 1.7 µM; in data set [13] it was 64.7 ± 0.3 µM. The same compound displayed an IC50 in data set [15] of 42.6 ± 5.6 µM. Moreover, the “Stability, time-dependent UV-Vis spectrum” value in data set [4] (1 mM in PBS (L1Pt: 2% DMSO in PBS), physiological pH 7.4, t = 0, 7, 24 h, 200-450 nm) is “did not display any significant changes throughout 24 h; also recorded: remains stable over 24 h”. The “Stability, time-dependent UV-Vis spectrum at other pH-values” in data set [4] (1 mM in PBS, acidic (pH 2), weakly acidic (pH 5), alkaline (pH 12), t = 0, 7, 24 h) is on record as “no obvious changes in the absorptions peak”. Further, in data set [14], the “Solubility in water / aqueous media” value is on record as “poor solubility in aqueous media”.
